In brackets after ≈: the same amount, converted by molar mass. Blank lines part the entries; values can stand above or below the compound they belong to.
Assays:
Experiment in all cases: In vitro antibacterial evaluation: minimum inhibitory concentration (MIC), broth dilution method
Type in all cases: cell-based
Enterococcus sp. = settings: broth dilution, 5×10^5 CFU/mL, 18 hours at 35° C.
Protocol: (§1) The minimum inhibitory concentration (MIC), the lowest concentration of the antibiotic which inhibits growth of the test organism, is determined by the broth dilution method using Muller-Hinton II […] (Baltimore Biological Laboratories) following the recommendations of the National Committee for Clinical Laboratory Standards [Methods for dilution antimicrobial susceptibility tests for bacteria that grow aerobically, approved standard M7-A2, National Committee for Clinical Laboratory Standards, Villanova, Pa].
(§2) An inoculum level of 5×10^5 CFU/mL, and a range of antibiotic concentrations (64-0.06 μg/mL) is used. […] The test organisms include a spectrum of Gram-positive bacteria comprised of Staphylococcus sp., Streptococcus sp. and Enterococcus sp. These organisms include recent clinical isolates that are resistant to methicillin, penicillin and/or vancomycin.

Staphylococcus sp. = settings: for MIC Staphylococcus aureus (ATCC 29213): strain ATCC 29213; for MIC Staphylococcus aureus (GC 1131): strain GC 1131; for MIC Staphylococcus aureus (GC 3051): strain GC 3051; for MIC Staphylococcus aureus (GC 3053): strain GC 3053; for MIC Staphylococcus aureus (GC 4541): strain GC 4541; for MIC Staphylococcus aureus (GC 4542): strain GC 4542; for MIC Staphylococcus aureus (GC 4544): strain GC 4544; for MIC Staphylococcus aureus (GC 4545): strain GC 4545
Protocol: as §1, §2

Streptococcus sp. = settings: broth dilution, 5×10^5 CFU/mL, 18 hours at 35° C.
Protocol: as §1, §2

Escherichia coli = settings: 5×10^5 CFU/mL, 18 hours at 35° C.
Protocol: as §1, §2

[1] = broth dilution, 18 hours at 35° C.
[2] = strain GC 4543, broth dilution, 18 hours at 35° C.
[3] = strain GC 4546, broth dilution, 18 hours at 35° C.
[4] = strain GC 4547, broth dilution, 18 hours at 35° C.
[5] = strain GC 4548, broth dilution, 18 hours at 35° C.
[6] = strain GC 4549, broth dilution, 18 hours at 35° C.
[7] = strain GC 4551, broth dilution, 18 hours at 35° C.
[8] = strain GC 6257, broth dilution, 18 hours at 35° C.
[9] = broth dilution, 5×10^5 CFU/mL, 18 hours at 35° C.

MIC Enterococccus avium (GC 4558) (Enterococcus sp.): 0.25 µg/mL (≈ 0.177 µM)
MIC Enterococccus faecalis (ATCC 29212) (Enterococcus sp.): 4 µg/mL (≈ 2.83 µM)
MIC Enterococccus faecalis (GC 2691) (Enterococcus sp.): 4 µg/mL (≈ 2.83 µM)
MIC Enterococccus faecalis (GC 3059) (Enterococcus sp.): 4 µg/mL (≈ 2.83 µM)
MIC Enterococccus faecalis (GC 4552) (Enterococcus sp.): 4 µg/mL (≈ 2.83 µM)
MIC Enterococccus faecalis (GC 4553) (Enterococcus sp.): 4 µg/mL (≈ 2.83 µM)
MIC Enterococccus faecalis (GC 4554) (Enterococcus sp.): 4 µg/mL (≈ 2.83 µM)
MIC Enterococccus faecalis (GC 6189) (Enterococcus sp.): 4 µg/mL (≈ 2.83 µM)
MIC Enterococccus faecium (GC 2243) (Enterococcus sp.): 4 µg/mL (≈ 2.83 µM)
MIC Enterococccus faecium (GC 4556) (Enterococcus sp.): 4 µg/mL (≈ 2.83 µM)
MIC Enterococccus faecium (GC 4557) (Enterococcus sp.): 1 µg/mL (≈ 0.708 µM)
MIC Enterococcus faecalis (GC 2242) (Enterococcus sp.): 4 µg/mL (≈ 2.83 µM)
MIC Staphylococcus aureus (ATCC 29213) (Staphylococcus sp.): 2 µg/mL (≈ 1.42 µM)
MIC Staphylococcus aureus (ATCC 29213) (Staphylococcus sp.; [1]): 2 µg/mL (≈ 1.42 µM)
MIC Staphylococcus aureus (GC 1131) (Staphylococcus sp.): 2 µg/mL (≈ 1.42 µM)
MIC Staphylococcus aureus (GC 1131) (Staphylococcus sp.; [1]): 2 µg/mL (≈ 1.42 µM)
MIC Staphylococcus aureus (GC 3051) (Staphylococcus sp.): 2 µg/mL (≈ 1.42 µM)
MIC Staphylococcus aureus (GC 3051) (Staphylococcus sp.; [1]): 2 µg/mL (≈ 1.42 µM)
MIC Staphylococcus aureus (GC 3053) (Staphylococcus sp.): 2 µg/mL (≈ 1.42 µM)
MIC Staphylococcus aureus (GC 3053) (Staphylococcus sp.; [1]): 2 µg/mL (≈ 1.42 µM)
MIC Staphylococcus aureus (GC 4541) (Staphylococcus sp.): 2 µg/mL (≈ 1.42 µM)
MIC Staphylococcus aureus (GC 4541) (Staphylococcus sp.; [1]): 2 µg/mL (≈ 1.42 µM)
MIC Staphylococcus aureus (GC 4542) (Staphylococcus sp.): 1 µg/mL (≈ 0.708 µM)
MIC Staphylococcus aureus (GC 4542) (Staphylococcus sp.; [1]): 1 µg/mL (≈ 0.708 µM)
MIC Staphylococcus aureus-SMITH (GC 4543) (Staphylococcus sp.; strain GC 4543, 18 hours at 35° C.): 2 µg/mL (≈ 1.42 µM)
MIC Staphylococcus aureus-SMITH (GC 4543) (Staphylococcus sp.; [2]): 2 µg/mL (≈ 1.42 µM)
MIC Staphylococcus aureus (GC 4544) (Staphylococcus sp.): 2 µg/mL (≈ 1.42 µM)
MIC Staphylococcus aureus (GC 4544) (Staphylococcus sp.; [1]): 2 µg/mL (≈ 1.42 µM)
MIC Staphylococcus aureus (GC 4545) (Staphylococcus sp.): 2 µg/mL (≈ 1.42 µM)
MIC Staphylococcus aureus (GC 4545) (Staphylococcus sp.; [1]): 2 µg/mL (≈ 1.42 µM)
MIC Coagulase Negative Staphylococcus (GC 4547) (Staphylococcus sp.; strain GC 4547): 2 µg/mL (≈ 1.42 µM)
MIC Coagulase Negative Staphylococcus (GC 4547) (Staphylococcus sp.; [4]): 2 µg/mL (≈ 1.42 µM)
MIC Coagulase Negative Staphylococcus (GC 4548) (Staphylococcus sp.; strain GC 4548): 1 µg/mL (≈ 0.708 µM)
MIC Coagulase Negative Staphylococcus (GC 4548) (Staphylococcus sp.; [5]): 1 µg/mL (≈ 0.708 µM)
MIC Coagulase Negative Staphylococcus (GC 4549) (Staphylococcus sp.; strain GC 4549): 1 µg/mL (≈ 0.708 µM)
MIC Coagulase Negative Staphylococcus (GC 4549) (Staphylococcus sp.; [6]): 1 µg/mL (≈ 0.708 µM)
MIC Coagulase Negative Staphylococcus (GC 4551) (Staphylococcus sp.; strain GC 4551): 2 µg/mL (≈ 1.42 µM)
MIC Coagulase Negative Staphylococcus (GC 4551) (Staphylococcus sp.; [7]): 2 µg/mL (≈ 1.42 µM)
MIC Coagulase Negative Staphylococcus (GC 6257) (Staphylococcus sp.; strain GC 6257): 1 µg/mL (≈ 0.708 µM)
MIC Coagulase Negative Staphylococcus (GC 6257) (Staphylococcus sp.; [8]): 1 µg/mL (≈ 0.708 µM)
MIC Streptococcus agalactiae (GC 4564) (Streptococcus sp.): 1 µg/mL (≈ 0.708 µM)
MIC Streptococcus pneumoniae (GC 1894) (Streptococcus sp.): <0.06 µg/mL
MIC Streptococcus pneumoniae (GC 4565) (Streptococcus sp.): <0.06 µg/mL
MIC Streptococcus pneumonine (ATCC 6301) (Streptococcus sp.): <0.06 µg/mL
MIC Streptococcus pyogenes (GC 4563) (Streptococcus sp.): 0.12 µg/mL (≈ 0.085 µM)
MIC Escherichia coli (ATCC 25922) (Escherichia coli): 32 µg/mL (≈ 22.7 µM)
MIC Escherichia coli (GC 4559) (Escherichia coli): 32 µg/mL (≈ 22.7 µM)
MIC Escherichia coli (GC 4560) (Escherichia coli): 1 µg/mL (≈ 0.708 µM)
Structure (SMILES): CC(c1ccccc1)C1NC(=O)CNC(=O)C(CO)NC(=O)C(C(O)C2CNC(=N)N2C2OC(CO)C(O)C(O)C2O)NC(=O)C(C(O)C2CNC(=N)N2)NC(=O)C(Cc2ccc(OC3OC(CO)C(OC4OC5COC(CCc6ccccc6)OC5C(O)C4O)C(O)C3O)cc2)NC1=O (stereo not shown) [Example 124]
MIC Staphylococcus haemolyticus (GC 4546) (Staphylococcus sp.; strain GC 4546): 2 µg/mL (≈ 1.42 µM)
MIC Staphylococcus haemolyticus (GC 4546) (Staphylococcus sp.; [3]): 2 µg/mL (≈ 1.42 µM)

MIC Enterococccus avium (GC 4558) (Enterococcus sp.): 32 µg/mL (≈ 22.6 µM)
MIC Enterococccus faecalis (ATCC 29212) (Enterococcus sp.): 32 µg/mL (≈ 22.6 µM)
MIC Enterococccus faecalis (GC 2691) (Enterococcus sp.): 32 µg/mL (≈ 22.6 µM)
MIC Enterococccus faecalis (GC 3059) (Enterococcus sp.): 32 µg/mL (≈ 22.6 µM)
MIC Enterococccus faecalis (GC 4552) (Enterococcus sp.): 32 µg/mL (≈ 22.6 µM)
MIC Enterococccus faecalis (GC 4553) (Enterococcus sp.): 32 µg/mL (≈ 22.6 µM)
MIC Enterococccus faecalis (GC 4554) (Enterococcus sp.): 32 µg/mL (≈ 22.6 µM)
MIC Enterococccus faecalis (GC 6189) (Enterococcus sp.): 32 µg/mL (≈ 22.6 µM)
MIC Enterococccus faecium (GC 2243) (Enterococcus sp.): 32 µg/mL (≈ 22.6 µM)
MIC Enterococccus faecium (GC 4556) (Enterococcus sp.): 32 µg/mL (≈ 22.6 µM)
MIC Enterococccus faecium (GC 4557) (Enterococcus sp.): 16 µg/mL (≈ 11.3 µM)
MIC Enterococcus faecalis (GC 2242) (Enterococcus sp.): 32 µg/mL (≈ 22.6 µM)
MIC Coagulase Negative Staphylococcus (GC 4547) (Staphylococcus sp.; [9]): 32 µg/mL (≈ 22.6 µM)
MIC Coagulase Negative Staphylococcus (GC 4548) (Staphylococcus sp.; [9]): 32 µg/mL (≈ 22.6 µM)
MIC Coagulase Negative Staphylococcus (GC 4549) (Staphylococcus sp.; [9]): 32 µg/mL (≈ 22.6 µM)
MIC Coagulase Negative Staphylococcus (GC 4551) (Staphylococcus sp.; [9]): 32 µg/mL (≈ 22.6 µM)
MIC Coagulase Negative Staphylococcus (GC 6257) (Staphylococcus sp.; [9]): 32 µg/mL (≈ 22.6 µM)
MIC Staphylococcus aureus-SMITH (GC 4543) (Staphylococcus sp.; [9]): 32 µg/mL (≈ 22.6 µM)
MIC Staphylococcus aureus (ATCC 29213) (Staphylococcus sp.): 32 µg/mL (≈ 22.6 µM)
MIC Staphylococcus aureus (ATCC 29213) (Staphylococcus sp.; [1]): 32 µg/mL (≈ 22.6 µM)
MIC Staphylococcus aureus (GC 1131) (Staphylococcus sp.): 32 µg/mL (≈ 22.6 µM)
MIC Staphylococcus aureus (GC 1131) (Staphylococcus sp.; [1]): 32 µg/mL (≈ 22.6 µM)
MIC Staphylococcus aureus (GC 3051) (Staphylococcus sp.): 32 µg/mL (≈ 22.6 µM)
MIC Staphylococcus aureus (GC 3051) (Staphylococcus sp.; [1]): 32 µg/mL (≈ 22.6 µM)
MIC Staphylococcus aureus (GC 3053) (Staphylococcus sp.): 32 µg/mL (≈ 22.6 µM)
MIC Staphylococcus aureus (GC 3053) (Staphylococcus sp.; [1]): 32 µg/mL (≈ 22.6 µM)
MIC Staphylococcus aureus (GC 4541) (Staphylococcus sp.): 8 µg/mL (≈ 5.64 µM)
MIC Staphylococcus aureus (GC 4541) (Staphylococcus sp.; [1]): 8 µg/mL (≈ 5.64 µM)
MIC Staphylococcus aureus (GC 4542) (Staphylococcus sp.): 32 µg/mL (≈ 22.6 µM)
MIC Staphylococcus aureus (GC 4542) (Staphylococcus sp.; [1]): 32 µg/mL (≈ 22.6 µM)
MIC Staphylococcus aureus-SMITH (GC 4543) (Staphylococcus sp.; [2]): 32 µg/mL (≈ 22.6 µM)
MIC Staphylococcus aureus (GC 4544) (Staphylococcus sp.): 32 µg/mL (≈ 22.6 µM)
MIC Staphylococcus aureus (GC 4544) (Staphylococcus sp.; [1]): 32 µg/mL (≈ 22.6 µM)
MIC Staphylococcus aureus (GC 4545) (Staphylococcus sp.): 32 µg/mL (≈ 22.6 µM)
MIC Staphylococcus aureus (GC 4545) (Staphylococcus sp.; [1]): 32 µg/mL (≈ 22.6 µM)
MIC Coagulase Negative Staphylococcus (GC 4547) (Staphylococcus sp.; [4]): 32 µg/mL (≈ 22.6 µM)
MIC Coagulase Negative Staphylococcus (GC 4548) (Staphylococcus sp.; [5]): 32 µg/mL (≈ 22.6 µM)
MIC Coagulase Negative Staphylococcus (GC 4549) (Staphylococcus sp.; [6]): 32 µg/mL (≈ 22.6 µM)
MIC Coagulase Negative Staphylococcus (GC 4551) (Staphylococcus sp.; [7]): 32 µg/mL (≈ 22.6 µM)
MIC Coagulase Negative Staphylococcus (GC 6257) (Staphylococcus sp.; [8]): 32 µg/mL (≈ 22.6 µM)
MIC Streptococcus agalactiae (GC 4564) (Streptococcus sp.): 1 µg/mL (≈ 0.705 µM)
MIC Streptococcus pneumoniae (GC 1894) (Streptococcus sp.): 0.12 µg/mL (≈ 0.0847 µM)
MIC Streptococcus pneumoniae (GC 4565) (Streptococcus sp.): 0.25 µg/mL (≈ 0.176 µM)
MIC Streptococcus pneumonine (ATCC 6301) (Streptococcus sp.): 0.25 µg/mL (≈ 0.176 µM)
MIC Streptococcus pyogenes (GC 4563) (Streptococcus sp.): 0.5 µg/mL (≈ 0.353 µM)
MIC Escherichia coli (ATCC 25922) (Escherichia coli): >64 µg/mL
MIC Escherichia coli (GC 4559) (Escherichia coli): >64 µg/mL
MIC Escherichia coli (GC 4560) (Escherichia coli): 32 µg/mL (≈ 22.6 µM)
Structure (SMILES): CC(C)=CCCC(C)C1OCC2OC(OC3C(CO)OC(Oc4ccc(CC5NC(=O)C(C(C)c6ccccc6)NC(=O)CNC(=O)C(CO)NC(=O)C(C(O)C6CNC(=N)N6C6OC(CO)C(O)C(O)C6O)NC(=O)C(C(O)C6CNC(=N)N6)NC5=O)cc4)C(O)C3O)C(O)C(O)C2O1 (stereo not drawn) [Example 125, Cyclo[glycyl-β-methylphenylalanyl-O-[4-O-[4,6-O-[2,6-dimethylhept-5-en-1-yidene)hexopyranosyl]hexopyranosyl]tyrosyl-3-(2-iminoimidazolidin-4-yl)seryl-3-(3-hexopyranosyl-2-iminoimidazolidin-4-yl)serylseryl]]
MIC Staphylococcus haemolyticus (GC 4546) (Staphylococcus sp.; [9]): 32 µg/mL (≈ 22.6 µM)
MIC Staphylococcus haemolyticus (GC 4546) (Staphylococcus sp.; [3]): 32 µg/mL (≈ 22.6 µM)
